Molecular target: T1, F508delCFTR cell surface expression in CFBE41o-F508delCFTR-HRP cells (Homo sapiens, UniProt P13569, DEL508-508)
T1 construct: fused on or other part: Horseradish peroxidase (HRP) reporter inserted in the fourth exofacial (extracellular) loop of CFTR; expression is doxycycline-inducible
Assay: Cell Surface Expression-Horse Radish Peroxidase (CSE-HRP) Assay
Assay type: cell-based
Conditions: for EC50: CFBE41o-F508delCFTR-HRP cells, 18-24 hours at 33° C., 8-point curve, highest concentration 20 μM; for Maximum % activity (%): maximum at any tested concentration, normalized to on-plate positive control (3 μM)
How it was run: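 CFBE41o- cells with HRP-tagged F508delCFTR, expression induced by 0.5 μg/mL doxycycline for 72 h at 37 °C, then compound for 18-24 h at 33 °C (8-point, 3-fold, top 20 μM). Surface HRP measured by luminol luminescence; % activity normalised to 3 μM positive-control corrector; EC50 from variable-slope sigmoidal fit, three replicate plates.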

T1 sequence (P13569 with tags, fused parts or gaps DEL508-508 limits assumed): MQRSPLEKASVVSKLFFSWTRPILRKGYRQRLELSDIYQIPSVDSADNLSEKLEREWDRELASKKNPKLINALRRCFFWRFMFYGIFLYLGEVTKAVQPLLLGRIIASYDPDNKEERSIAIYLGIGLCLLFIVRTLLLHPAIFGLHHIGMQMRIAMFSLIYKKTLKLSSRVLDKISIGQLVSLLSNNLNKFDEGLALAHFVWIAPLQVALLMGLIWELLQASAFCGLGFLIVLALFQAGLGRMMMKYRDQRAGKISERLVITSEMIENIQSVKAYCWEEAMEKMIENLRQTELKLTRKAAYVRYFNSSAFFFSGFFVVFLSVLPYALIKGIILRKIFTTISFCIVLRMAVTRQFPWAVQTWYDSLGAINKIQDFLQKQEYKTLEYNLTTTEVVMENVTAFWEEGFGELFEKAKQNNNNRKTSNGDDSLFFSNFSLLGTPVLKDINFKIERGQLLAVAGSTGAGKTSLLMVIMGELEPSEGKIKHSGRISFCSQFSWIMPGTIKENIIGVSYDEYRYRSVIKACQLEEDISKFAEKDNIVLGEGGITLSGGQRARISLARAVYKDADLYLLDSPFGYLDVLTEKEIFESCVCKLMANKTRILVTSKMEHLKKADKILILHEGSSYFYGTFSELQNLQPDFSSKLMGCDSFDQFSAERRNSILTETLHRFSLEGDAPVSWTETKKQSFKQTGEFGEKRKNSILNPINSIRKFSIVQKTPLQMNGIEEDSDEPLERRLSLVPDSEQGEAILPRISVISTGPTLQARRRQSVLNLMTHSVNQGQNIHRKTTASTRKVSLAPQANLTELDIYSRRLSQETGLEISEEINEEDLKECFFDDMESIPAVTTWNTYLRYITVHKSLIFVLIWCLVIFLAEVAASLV
T1 sequence (P13569 919-1480 limits assumed, stated change not applied): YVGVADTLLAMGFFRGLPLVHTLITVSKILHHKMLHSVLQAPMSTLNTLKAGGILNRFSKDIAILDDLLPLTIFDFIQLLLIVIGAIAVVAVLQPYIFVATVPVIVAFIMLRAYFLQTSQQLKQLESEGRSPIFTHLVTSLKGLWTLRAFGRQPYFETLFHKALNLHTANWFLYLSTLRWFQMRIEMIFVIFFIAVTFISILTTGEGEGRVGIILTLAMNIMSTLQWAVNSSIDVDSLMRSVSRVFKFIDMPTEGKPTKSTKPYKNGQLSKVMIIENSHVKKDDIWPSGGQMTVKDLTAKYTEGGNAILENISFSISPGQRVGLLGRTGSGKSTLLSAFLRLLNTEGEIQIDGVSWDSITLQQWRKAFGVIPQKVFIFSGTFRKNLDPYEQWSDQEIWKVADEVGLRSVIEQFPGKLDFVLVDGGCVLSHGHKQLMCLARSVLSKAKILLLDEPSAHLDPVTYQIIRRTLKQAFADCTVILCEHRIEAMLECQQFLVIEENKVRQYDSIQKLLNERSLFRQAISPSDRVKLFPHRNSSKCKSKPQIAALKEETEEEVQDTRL

| Structure (SMILES) | EC50 [nM] | Maximum % activity (%) |
| --- | --- | --- |
| C[C@]1(C(=O)N[C@H]2C[C@@H](C3CCN(C[C@H](O)CO)CC3)Oc3cc(OC(F)(F)F)ccc32)COc2cc3c(cc21)OC(F)(F)O3 [Example 188, (7R)—N-[(2S,4S)-2-{1-[(2S)-2,3-dihydroxypropyl]piperidin-4-yl}-7-(trifluoromethoxy)-3,4-dihydro-2H-1-benzopyran-4-yl]-2,2-difluoro-7-methyl-6,7-dihydro-2H-furo[2,3-f][1,3]benzodioxole-7-carboxamide] | > 20000 | 20 |
| Cc1ccc(NC(=O)C2(C)COc3cc4c(cc32)OC(F)(F)O4)nc1-c1cccc(C(=O)OC(C)(C)C)c1 (stereo not drawn) [Example 1, tert-butyl 3-{6-[(2,2-difluoro-7-methyl-6,7-dihydro-2H-furo[2,3-f][1,3]benzodioxole-7-carbonyl)amino]-3-methylpyridin-2-yl}benzoate] | 2050 | 100 |
| COc1ccc2c(c1)O[C@@H](c1ccc(C(=O)N3CCC(F)(F)CC3)cn1)C[C@H]2NC(=O)[C@@]1(C)COc2cc3c(cc21)OC(F)(F)O3 [Example 218, (7R)—N-{(2R,4R)-2-[5-(4,4-difluoropiperidine-1-carbonyl)pyridin-2-yl]-7-methoxy-3,4-dihydro-2H-1-benzopyran-4-yl}-2,2-difluoro-7-methyl-6,7-dihydro-2H-furo[2,3-f][1,3]benzodioxole-7-carboxamide] | 10 | 116 |
| C[C@]1(C(=O)Nc2cccc(-c3cc(C(=O)O)ccc3F)n2)COc2cc3c(cc21)OC(F)(F)O3 [Example 128, 3-(6-{[(7R)-2,2-difluoro-7-methyl-6,7-dihydro-2H-furo[2,3-f][1,3]benzodioxole-7-carbonyl]amino}pyridin-2-yl)-4-fluorobenzoic acid] | 4960 | 172 |
| COc1ccc2c(c1)O[C@H](c1ccc(OCc3ccccc3)nn1)C[C@H]2NC(=O)[C@@]1(C)COc2cc3c(cc21)OC(F)(F)O3 (single isomer, unassigned) [Example 272] | 260 | 108 |
| CC1(C(=O)Nc2cccc(-c3ccccc3)n2)COc2cc3c(cc21)OC(F)(F)O3 (stereo not drawn) [Example 55, 2,2-difluoro-7-methyl-N-(6-phenylpyridin-2-yl)-6,7-dihydro-2H-furo[2,3-f][1,3]benzodioxole-7-carboxamide] | 6620 | 159 |
| COc1ccc2c(c1)O[C@@H](c1ccc(C(=O)N3CCOCC3CO)cn1)C[C@H]2NC(=O)[C@@]1(C)COc2cc3c(cc21)OC(F)(F)O3 (stereo partly drawn) [Example 240, (7R)-2,2-difluoro-N-[(2R,4R)-2-{5-[3-(hydroxymethyl)morpholine-4-carbonyl]pyridin-2-yl}-7-methoxy-3,4-dihydro-2H-1-benzopyran-4-yl]-7-methyl-6,7-dihydro-2H-furo[2,3-f][1,3]benzodioxole-7-carboxamide] | 60 | 132 |
| C[C@]1(C(=O)Nc2cc3cc(C4(COCc5ccccc5)CC4)n(C[C@@H](O)COCc4ccccc4)c3cc2F)COc2cc3c(cc21)OC(F)(F)O3 [Example 286, (7R)—N-(1-[(2R)-3-(benzyloxy)-2-hydroxypropyl]-2-{1-[(benzyloxy)methyl]cyclopropyl}-6-fluoro-1H-indol-5-yl)-2,2-difluoro-7-methyl-6,7-dihydro-2H-furo[2,3-f][1,3]benzodioxole-7-carboxamide] | 210 | 120 |
| C[C@@]1(C(=O)N[C@@H]2C[C@H](c3ccc(C(=O)O)cc3)Oc3ccccc32)CCc2cc3c(cc21)OC(F)(F)O3 (single isomer, unassigned) [Example 58] | 420 | 104 |
| COC(=O)c1ccc([C@H]2C[C@@H](NC(=O)[C@]3(C)COc4cc5c(cc43)OC(F)(F)O5)c3ccc(OC)cc3O2)cc1 [Example 17, methyl 4-[(2R,4R)-4-{[(7S)-2,2-difluoro-7-methyl-6,7-dihydro-2H-furo[2,3-f][1,3]benzodioxole-7-carbonyl]amino}-7-methoxy-3,4-dihydro-2H-1-benzopyran-2-yl]benzoate] | 8770 | 31 |
| C[C@]1(C(=O)Nc2cnc(N3CCC(C(=O)O)C3)cn2)COc2cc3c(cc21)OC(F)(F)O3 (stereo partly drawn) [Example 94, 1-(5-{[(7R)-2,2-difluoro-7-methyl-6,7-dihydro-2H-furo[2,3-f][1,3]benzodioxole-7-carbonyl]amino}pyrazin-2-yl)pyrrolidine-3-carboxylic acid] | > 20000 | 8 |
| C[C@]1(C(=O)Nc2cccc(NC[C@H](O)CO)n2)COc2cc3c(cc21)OC(F)(F)O3 [Example 93, (7R)—N-(6-{[(2S)-2,3-dihydroxypropyl]amino}pyridin-2-yl)-2,2-difluoro-7-methyl-6,7-dihydro-2H-furo[2,3-f][1,3]benzodioxole-7-carboxamide] | 1530 | 89 |
| COc1ccc2c(c1)O[C@@H](c1ccc(OCc3ccccc3)nn1)C[C@H]2NC(=O)[C@@]1(C)COc2cc3c(cc21)OC(F)(F)O3 (single isomer, unassigned) [Example 273] | 120 | 92 |
| CC1(C)CCN(c2cccc(NC(=O)[C@@]3(C)COc4cc5c(cc43)OC(F)(F)O5)n2)C1 [Example 101, (7R)—N-[6-(3,3-dimethylpyrrolidin-1-yl)pyridin-2-yl]-2,2-difluoro-7-methyl-6,7-dihydro-2H-furo[2,3-f][1,3]benzodioxole-7-carboxamide] | 870 | 116 |
| C[C@]1(C(=O)N[C@H]2C[C@@H](C3(C(=O)N(CCO)CCO)CC3)Oc3cc(OC(F)(F)F)ccc32)COc2cc3c(cc21)OC(F)(F)O3 [Example 280, (7R)—N-[(2S,4S)-2-{1-[bis(2-hydroxyethyl)carbamoyl]cyclopropyl}-7-(trifluoromethoxy)-3,4-dihydro-2H-1-benzopyran-4-yl]-2,2-difluoro-7-methyl-6,7-dihydro-2H-furo[2,3-f][1,3]benzodioxole-7-carboxamide] | > 20000 | 10 |
| C[C@]1(C(=O)N[C@@H]2C[C@H](c3cccc(C(=O)O)c3)Oc3ccccc32)COc2cc3c(cc21)OC(F)(F)O3 [Example 22, 3-[(2R,4R)-4-{[(7R)-2,2-difluoro-7-methyl-6,7-dihydro-2H-furo[2,3-f][1,3]benzodioxole-7-carbonyl]amino}-3,4-dihydro-2H-1-benzopyran-2-yl]benzoic acid] | 640 | 156 |
| COC(=O)c1ccc(-c2cccc(NC(=O)[C@@]3(C)COc4cc5c(cc43)OC(F)(F)O5)n2)cc1 [Example 79, methyl 4-(6-{[(7R)-2,2-difluoro-7-methyl-6,7-dihydro-2H-furo[2,3-f][1,3]benzodioxole-7-carbonyl]amino}pyridin-2-yl)benzoate] | 1180 | 151 |
| COc1ccc2c(c1)O[C@@H](C1CCC(C(=O)O)CC1)C[C@H]2NC(=O)[C@]1(C)COc2cc3c(cc21)OC(F)(F)O3 (stereo partly drawn) [Example 292, 4-[(2R,4R)-4-{[(7S)-2,2-difluoro-7-methyl-6,7-dihydro-2H-furo[2,3-f][1,3]benzodioxole-7-carbonyl]amino}-7-methoxy-3,4-dihydro-2H-1-benzopyran-2-yl]cyclohexane-1-carboxylic acid] | 7540 | 99 |
